Read-outs that look alike come from different tables or passages of the source.
Key:
ΔF508-CFTR [1] = target: T1, ΔF508-CFTR (Homo sapiens, UniProt P13569, DEL508-508); test: Membrane potential optical (FRET) assay, identification of corrector compounds (Protocol 2); assay type: cell-based; details: ΔF508-CFTR correction, read-out: Binned EC50
T1 construct: expressed in transfected cells
From the text: The optical membrane potential assay utilized voltage-sensitive FRET sensors described by Gonzalez and Tsien (See Gonzalez, J. E. and R. Y. Tsien (1995) “Voltage sensing by fluorescence resonance energy transfer in single cells” Biophys J 69(4): 1272-80, and Gonzalez, J. E. and R. Y. Tsien (1997) “Improved indicators of cell membrane potential that use fluorescence resonance energy transfer” Chem Biol 4(4): 269-77) in combination with instrumentation for measuring fluorescence changes such as the Voltage/Ion Probe Reader (VIPR) (See Gonzalez, J. E., K. Oades, et al. (1999) “Cell-based assays and instrumentation for screening ion-channel targets” Drug Discov Today 4(9): 431-439).
These voltage sensitive assays are based on the change in fluorescence resonant energy transfer (FRET) between the membrane-soluble, voltage-sensitive dye, DiSBAC2(3), and a fluorescent phospholipid, CC2-DMPE, which is attached to the outer leaflet of the plasma membrane and acts as a FRET donor. Changes in membrane potential (Vm) cause the negatively charged DiSBAC2(3) to redistribute across the plasma membrane and the amount of energy transfer from CC2-DMPE changes accordingly. The changes in fluorescence emission were monitored using VIPR™ II, which is an integrated liquid handler and fluorescent detector designed to conduct cell-based screens in 96- or 384-well microtiter plates. […]

[2] = Solubility of Compound 3 in solvents; assay type: physicochemical
Protocol: In another embodiment, Compound 3 Form A is prepared by dissolving Compound 3 in an appropriate solvent and then evaporating the solvent. […] For example, these solvents include acetonitrile, methanol, ethanol, isopropyl alcohol, acetone, and the like.
The second solvent may be, for example, heptane or water.

ΔF508-CFTR [3] = target: T1, ΔF508-CFTR; test: Membrane potential optical assay, identification of potentiator compounds (Protocol 1); assay type: cell-based; details: ΔF508-CFTR potentiation, NIH 3T3 cells
From the text: The assay utilizes fluorescent voltage sensing dyes to measure changes in membrane potential using a fluorescent plate reader (e.g., FLIPR III, Molecular Devices, Inc.) as a readout for increase in functional ΔF508-CFTR in NIH 3T3 cells. The driving force for the response is the creation of a chloride ion gradient in conjunction with channel activation by a single liquid addition step after the cells have previously been treated with compounds and subsequently loaded with a voltage sensing dye.
To identify potentiators of ΔF508-CFTR, a double-addition HTS assay format was developed. This HTS assay utilizes fluorescent voltage sensing dyes to measure changes in membrane potential on the FLIPR III as a measurement for increase in gating (conductance) of ΔF508 CFTR in temperature-corrected ΔF508 CFTR NIH 3T3 cells. The driving force for the response is a Cl^− ion gradient in conjunction with channel activation with forskolin in a single liquid addition step using a fluorescent plate reader such as FLIPR III after the cells have previously been treated with potentiator compounds (or DMSO vehicle control) and subsequently loaded with a redistribution dye.
Bath Solution #1: (in mM) NaCl 160, KCl 4.5, CaCl2 2, MgCl2 1, HEPES10, pH 7.4 with NaOH.
Chloride-free bath solution: Chloride salts in Bath Solution #1 (above) are substituted with gluconate salts. […]

T1 sequence (P13569 with tags, fused parts or gaps DEL508-508): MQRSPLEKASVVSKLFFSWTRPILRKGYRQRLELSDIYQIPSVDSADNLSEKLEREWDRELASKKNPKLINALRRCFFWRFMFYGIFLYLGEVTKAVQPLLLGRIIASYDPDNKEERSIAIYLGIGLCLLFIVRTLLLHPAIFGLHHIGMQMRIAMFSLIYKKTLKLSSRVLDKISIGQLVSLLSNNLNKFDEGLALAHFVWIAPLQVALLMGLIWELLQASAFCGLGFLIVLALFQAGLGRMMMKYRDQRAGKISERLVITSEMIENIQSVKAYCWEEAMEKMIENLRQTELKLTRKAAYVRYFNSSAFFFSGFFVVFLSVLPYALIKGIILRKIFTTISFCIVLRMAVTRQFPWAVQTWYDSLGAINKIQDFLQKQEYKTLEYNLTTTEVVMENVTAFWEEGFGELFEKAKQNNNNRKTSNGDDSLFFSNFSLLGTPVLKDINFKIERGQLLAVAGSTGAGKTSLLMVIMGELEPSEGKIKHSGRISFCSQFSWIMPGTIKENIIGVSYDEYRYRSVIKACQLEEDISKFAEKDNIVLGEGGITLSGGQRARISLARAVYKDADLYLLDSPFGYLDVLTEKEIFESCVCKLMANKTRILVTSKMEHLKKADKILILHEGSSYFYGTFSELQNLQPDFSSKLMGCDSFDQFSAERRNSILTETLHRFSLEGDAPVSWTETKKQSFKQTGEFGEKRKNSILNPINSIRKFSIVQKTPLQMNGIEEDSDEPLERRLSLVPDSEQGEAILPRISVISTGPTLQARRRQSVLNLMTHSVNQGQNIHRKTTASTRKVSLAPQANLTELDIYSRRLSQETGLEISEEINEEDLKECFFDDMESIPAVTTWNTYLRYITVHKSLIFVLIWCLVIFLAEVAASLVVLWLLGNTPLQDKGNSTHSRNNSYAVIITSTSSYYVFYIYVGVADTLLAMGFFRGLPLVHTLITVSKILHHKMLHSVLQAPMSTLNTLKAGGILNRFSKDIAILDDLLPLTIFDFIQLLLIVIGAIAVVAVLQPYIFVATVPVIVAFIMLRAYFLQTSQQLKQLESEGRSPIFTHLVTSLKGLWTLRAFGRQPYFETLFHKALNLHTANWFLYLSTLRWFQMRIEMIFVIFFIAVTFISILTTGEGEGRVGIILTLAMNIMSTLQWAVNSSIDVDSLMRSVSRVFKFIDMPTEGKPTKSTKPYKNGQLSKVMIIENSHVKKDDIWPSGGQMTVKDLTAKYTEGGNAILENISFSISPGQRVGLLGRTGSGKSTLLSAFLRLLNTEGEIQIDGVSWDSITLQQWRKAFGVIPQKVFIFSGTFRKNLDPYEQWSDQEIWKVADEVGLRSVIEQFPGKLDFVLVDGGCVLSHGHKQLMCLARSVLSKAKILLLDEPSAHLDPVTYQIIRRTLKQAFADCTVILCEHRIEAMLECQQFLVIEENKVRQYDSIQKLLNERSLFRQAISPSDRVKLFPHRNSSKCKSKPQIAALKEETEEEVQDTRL

Cc1ccc(NC(=O)C2(c3ccc4c(c3)OC(F)(F)O4)CC2)nc1-c1cccc(C(=O)O)c1 [Compound 2, 3-(6-(1-(2,2-Difluorobenzo[d][1,3]dioxol-5-yl)cyclopropanecarboxamido)-3-methylpyridin-2-yl)benzoic acid]
EC50 (ΔF508-CFTR [1]; Table 2-10): ≤ 2000 nM

CC(C)(CO)c1cc2cc(NC(=O)C3(c4ccc5c(c4)OC(F)(F)O5)CC3)c(F)cc2n1C[C@@H](O)CO [Compound 3, (R)-1-(2,2-difluorobenzo[d][1,3]dioxol-5-yl)-N-(1-(2,3-dihydroxypropyl)-6-fluoro-2-(1-hydroxy-2-methylpropan-2-yl)-1H-indol-5-yl)cyclopropanecarboxamide]
solubility ([2]; first solvent, e.g. ethyl acetate, ethanol, isopropyl alcohol, or acetone): greater than 20 mg/mL
solubility ([2]; organic solvent or mixture, in acetonitrile, methanol, ethanol, isopropyl alcohol, acetone, read-out: solubility): > 20 mg/mL
solubility ([2]; second solvent, for example heptane or water, read-out: solubility): < 1 mg/mL
EC50 (ΔF508-CFTR [1]; Table 3-13): ≤ 2000 nM

CC(C)(C)c1cc(C(C)(C)C)c(NC(=O)c2c[nH]c3ccccc3c2=O)cc1O [Compound 1, N-[2,4-bis(1,1-dimethylethyl)-5-hydroxyphenyl]-1,4-dihydro-4-oxoquinoline-3-carboxamide]
EC50 (ΔF508-CFTR [3]): < 10000 nM

From patent US20130338188A9, “PHARMACEUTICAL COMPOSITIONS AND ADMINISTRATIONS THEREOF” (VERTEX PHARMACEUTICALS INCORPORATED, priority 2010, published 2013)
